In patent US20050042238A1, “Process for treating aqueous systems” (priority 2003, published 2005):

Experiments:
algae = test: Dosing of micro-mixed emulsion to cooling tower water, control of algae; details: isothiazolone 3 ppm in cooling water of a cooling tower; surfactant-free emulsion from micro-mixer
Method: A 50 wt. % solution of 4,5-dichloro-2-octyl-3-isothiazolone in benzyl alcohol is fed to an array of slit shaped interdigital micro-mixers at a feed rate of 50 mL/minute, combined with water fed to the micro-mixer at a feed rate of 600 mL/minute. The water contains no surfactants. The resulting emulsion exiting the micro-mixer it is directly dosed to cooling water in a 50,000 gallon […] cooling tower, where is effectively distributed and re-circulated throughout the cooling water. After about 20 minutes, the isothiazolone concentration in the cooling water reaches a desired concentration of 3 ppm and the emulsion feed is stopped. […] Focusing micro-mixers also produce similar results as compared to the micro-mixers described above. Melted 2-octyl-3-isothiazolone as a neat liquid is fed to an array of slit shaped interdigital micro-mixers at a feed rate of 50 mL/minute, combined with water fed to the micro-mixer at a feed rate of 600 mL/minute. The water contains no surfactants and solvents. The resulting emulsion exiting the micro-mixer it is directly dosed to cooling water in a 50,000 gallon […] cooling tower, where is effectively distributed and re-circulated throughout the cooling water. After about 20 minutes, the isothiazolone concentration in the cooling water reaches a desired concentration of 3 ppm and the emulsion feed is stopped. […]

mold = test: Dosing of micro-mixed emulsion to paper pulp slurry tank, mold proofing of paper; details: 50 wt. % solution in benzyl alcohol micro-mixed with water, charged to 10,000 liter pulp slurry tank
Method: A 10,000 liter pulp slurry tank has a continuous throughput averaging 6,600 liters/minute. A 50 wt. % solution of 4,5-dichloro-2-octyl-3-isothiazolone in benzyl alcohol is fed to an array of slit shaped interdigital micro-mixers at a feed rate of 56 mL/minute, combined with water fed to the micro-mixer at a feed rate of 600 mL/minute. The water contains no surfactants. The resulting emulsion exiting the micro-mixer is directly charged to water in the pulp slurry tank, where it is effectively distributed and re-circulated throughout the tank water. […] Focusing micro-mixers also produce similar results as compared to the micro-mixers described above.

Structure (SMILES) | control of algae in cooling water (algae) | mold proofing in paper prepared from treated pulp (mold)
CCCCCCCCn1sc(Cl)c(Cl)c1=O [4,5-dichloro-2-octyl-3-isothiazolone] | Effective control of algae | effective mold proofing
CCCCCCCCn1sccc1=O [2-octyl-3-isothiazolone] | Effective control of algae | 
